How the values were obtained:
Assay type in all cases: in vivo
[1] = test system: barnyardgrass (Echinochloa crus-galli); assay: Test A pre-/postemergence plant response
Procedure, shortened: (§1)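 Ratings run 0–100 (100 = complete control), assigned visually against untreated controls roughly 10 days after treatment in a greenhouse. Compounds, formulated in non-phytotoxic solvent containing surfactant, were applied as a soil-directed preemergence spray and concurrently postemergence to one- to two-leaf plants 2–10 cm tall.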

corn (Zea mays) = assay: Test A pre-/postemergence plant response
Procedure, shortened: as §1

[2] = test system: giant foxtail (Setaria faberi); assay: Test A pre-/postemergence plant response
Procedure, shortened: as §1

[3] = test system: large crabgrass (Digitaria sanguinalis); assay: Test A pre-/postemergence plant response
Procedure, shortened: as §1

[4] = test system: morningglory (Ipomoea coccinea); assay: Test A pre-/postemergence plant response
Procedure, shortened: as §1

[5] = test system: pigweed (Amaranthus retroflexus); assay: Test A pre-/postemergence plant response
Procedure, shortened: as §1

[6] = test system: velvetleaf (Abutilon theophrasti); assay: Test A pre-/postemergence plant response
Procedure, shortened: as §1

[7] = test system: wheat (Triticum aestivum); assay: Test A pre-/postemergence plant response
Procedure, shortened: as §1

[8] = test system: canarygrass (Phalaris minor); assay: Test B postemergence plant response; conditions: for Canarygrass plant response rating: 8 g ai/ha, postemergence, 0-100 scale; for Plant response rating, Canarygrass: Postemergence
Procedure, shortened: (§2)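 Visual injury score from 0 (none) to 100 (complete control) versus controls, taken 13 to 15 days after treatment in the greenhouse; chemicals applied postemergence, as formulated, to plants of 1- to 4-leaf stage (2 to 18 cm tall); dash denotes no test result.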

[9] = test system: chickweed (Stellaria media); assay: Test B postemergence plant response; conditions: for Chickweed plant response rating: 8 g ai/ha, postemergence, 0-100 scale; for Plant response rating, Chickweed: Postemergence
Procedure, shortened: as §2

[10] = test system: windgrass (Apera spica-venti); assay: Test B postemergence plant response; conditions: for Windgrass plant response rating: 8 g ai/ha, postemergence, 0-100 scale; for Plant response rating, Windgrass: Postemergence
Procedure, shortened: as §2

[11] = test system: winter barley (Hordeum vulgare); assay: Test B postemergence plant response; conditions: for Barley plant response rating: 8 g ai/ha, postemergence, 0-100 scale; for Plant response rating, Barley: Postemergence
Procedure, shortened: as §2

[12] = Postemergence, 125 g ai/ha, 0 to 100 scale, 0 no effect, 100 complete control
[13] = Postemergence, 500 g ai/ha, 0 to 100 scale, 0 no effect, 100 complete control
[14] = Preemergence, 125 g ai/ha, 0 to 100 scale (0 no effect, 100 complete control)
[15] = Preemergence, 500 g ai/ha, 0 to 100 scale (0 no effect, 100 complete control)
[16] = 31 g ai/ha, scale 0 to 100, 0 no effect, 100 complete control
[17] = 16 g ai/ha, scale 0 to 100, 0 no effect, 100 complete control
[18] = Postemergence, 31 g ai/ha, 0 to 100 scale, 0 no effect, 100 complete control
[19] = Preemergence, 31 g ai/ha, 0 to 100 scale, 0 is no effect, 100 is complete control
[20] = 62 g ai/ha, scale 0 to 100, 0 no effect, 100 complete control

CCc1cc(-c2ccc(Cl)cc2)nn1-c1c(O)cnn(C)c1=O [Compound 21]
100: Plant response rating, Barnyardgrass [1, 12] | Plant response rating, Barnyardgrass [1, 13] | Plant response rating, Barnyardgrass [1, 14] | Plant response rating, Barnyardgrass [1, 15] | Plant response rating, Corn (corn (Zea mays); [15]) | Plant response rating, Foxtail, Giant [2, 12] | Plant response rating, Foxtail, Giant [2, 13] | Plant response rating, Foxtail, Giant [2, 14] | Plant response rating, Foxtail, Giant [2, 15] | Plant response rating, Crabgrass, Large [3, 13] | Plant response rating, Crabgrass, Large [3, 14] | Plant response rating, Crabgrass, Large [3, 15] | Plant response rating, Wheat [7, 15] | Plant response rating, Canarygrass ([8]; 62 g ai/ha, scale 0 to 100) | Plant response rating, Windgrass [10, 16] | Plant response rating, Windgrass ([10]; 62 g ai/ha, scale 0 to 100) | Plant response rating, Barley ([11]; 62 g ai/ha, scale 0 to 100)
0: Plant response rating, Morningglory [4, 12] | Plant response rating, Morningglory [4, 13] | Plant response rating, Morningglory [4, 14] | Plant response rating, Morningglory [4, 15] | Plant response rating, Pigweed [5, 12] | Plant response rating, Pigweed [5, 13] | Plant response rating, Pigweed [5, 14] | Plant response rating, Pigweed [5, 15] | Plant response rating, Velvetleaf [6, 12] | Plant response rating, Velvetleaf [6, 13] | Plant response rating, Velvetleaf [6, 14] | Plant response rating, Velvetleaf [6, 15] | Chickweed plant response rating [9] | Plant response rating, Chickweed ([9]; 16 g ai/ha, scale 0 to 100) | Plant response rating, Chickweed [9, 16] | Plant response rating, Chickweed ([9]; 62 g ai/ha, scale 0 to 100) | Barley plant response rating [11]
60: Plant response rating, Wheat [7, 12] | Plant response rating, Barley [11, 17]
80: Plant response rating, Corn (corn (Zea mays); [12]) | Plant response rating, Wheat [7, 13]
90: Plant response rating, Corn (corn (Zea mays); [13]) | Plant response rating, Corn (corn (Zea mays); [14]) | Plant response rating, Crabgrass, Large [3, 12] | Plant response rating, Wheat [7, 14] | Plant response rating, Canarygrass ([8]; 16 g ai/ha, scale 0 to 100)
98: Plant response rating, Windgrass ([10]; 16 g ai/ha, scale 0 to 100)
50: Windgrass plant response rating [10]
10: Canarygrass plant response rating [8]

Cc1cc(-c2ccc(Cl)cc2)nn1-c1c(OC(=O)c2cccc(Cl)c2)cnn(C)c1=O [Compound 32]
0: Plant response rating, Barnyardgrass [1, 18] | Plant response rating, Corn (corn (Zea mays); [18]) | Plant response rating, Corn (corn (Zea mays); [19]) | Plant response rating, Morningglory [4, 18] | Plant response rating, Morningglory [4, 12] | Plant response rating, Morningglory [4, 19] | Plant response rating, Morningglory [4, 14] | Plant response rating, Pigweed [5, 18] | Plant response rating, Pigweed [5, 14] | Plant response rating, Velvetleaf [6, 18] | Plant response rating, Velvetleaf [6, 12] | Plant response rating, Velvetleaf [6, 19] | Plant response rating, Wheat [7, 18] | Plant response rating, Wheat [7, 19] | Canarygrass plant response rating [8] | Chickweed plant response rating [9] | Plant response rating, Chickweed ([9]; 16 g ai/ha, scale 0 to 100) | Plant response rating, Chickweed [9, 16] | Windgrass plant response rating [10] | Plant response rating, Windgrass ([10]; 16 g ai/ha, scale 0 to 100) | Barley plant response rating [11] | Plant response rating, Barley [11, 17] | Plant response rating, Barley [11, 16] | Plant response rating, Barley [11, 20]
50: Plant response rating, Corn (corn (Zea mays); [12]) | Plant response rating, Windgrass [10, 20]
100: Plant response rating, Foxtail, Giant [2, 14]
10: Plant response rating, Foxtail, Giant [2, 18] | Plant response rating, Crabgrass, Large [3, 18] | Plant response rating, Pigweed [5, 12] | Plant response rating, Velvetleaf [6, 14] | Plant response rating, Canarygrass ([8]; 16 g ai/ha, scale 0 to 100) | Plant response rating, Canarygrass [8, 16]
70: Plant response rating, Barnyardgrass [1, 12] | Plant response rating, Crabgrass, Large [3, 12]
90: Plant response rating, Barnyardgrass [1, 14] | Plant response rating, Foxtail, Giant [2, 12] | Plant response rating, Foxtail, Giant [2, 19] | Plant response rating, Crabgrass, Large [3, 19] | Plant response rating, Crabgrass, Large [3, 14]
20: Plant response rating, Barnyardgrass [1, 19] | Plant response rating, Wheat [7, 12] | Plant response rating, Chickweed [9, 20]
30: Plant response rating, Canarygrass [8, 20]
60: Plant response rating, Corn (corn (Zea mays); [14]) | Plant response rating, Wheat [7, 14]

Cc1cc(-c2ccc(Cl)cc2)nn1-c1c(OS(=O)(=O)c2ccccc2)cnn(C)c1=O [Compound 35]
35: Plant response rating, Barley [11, 20]
80: Plant response rating, Barnyardgrass [1, 19] | Plant response rating, Corn (corn (Zea mays); [14]) | Plant response rating, Wheat [7, 14]
45: Plant response rating, Canarygrass [8, 20]
60: Plant response rating, Barnyardgrass [1, 18] | Plant response rating, Corn (corn (Zea mays); [12]) | Plant response rating, Foxtail, Giant [2, 18] | Plant response rating, Wheat [7, 12]
20: Plant response rating, Wheat [7, 19]
90: Plant response rating, Barnyardgrass [1, 12] | Plant response rating, Foxtail, Giant [2, 12] | Plant response rating, Crabgrass, Large [3, 12] | Plant response rating, Crabgrass, Large [3, 19]
100: Plant response rating, Barnyardgrass [1, 14] | Plant response rating, Foxtail, Giant [2, 19] | Plant response rating, Foxtail, Giant [2, 14] | Plant response rating, Crabgrass, Large [3, 14]
30: Plant response rating, Pigweed [5, 14]
40: Plant response rating, Crabgrass, Large [3, 18] | Plant response rating, Windgrass [10, 20]
5: Plant response rating, Canarygrass [8, 16] | Plant response rating, Barley [11, 16]
0: Plant response rating, Corn (corn (Zea mays); [18]) | Plant response rating, Corn (corn (Zea mays); [19]) | Plant response rating, Morningglory [4, 18] | Plant response rating, Morningglory [4, 12] | Plant response rating, Morningglory [4, 19] | Plant response rating, Morningglory [4, 14] | Plant response rating, Pigweed [5, 18] | Plant response rating, Pigweed [5, 12] | Plant response rating, Pigweed [5, 19] | Plant response rating, Velvetleaf [6, 18] | Plant response rating, Velvetleaf [6, 12] | Plant response rating, Velvetleaf [6, 19] | Plant response rating, Velvetleaf [6, 14] | Plant response rating, Wheat [7, 18] | Canarygrass plant response rating [8] | Plant response rating, Canarygrass ([8]; 16 g ai/ha, scale 0 to 100) | Chickweed plant response rating [9] | Plant response rating, Chickweed ([9]; 16 g ai/ha, scale 0 to 100) | Plant response rating, Chickweed [9, 16] | Plant response rating, Chickweed [9, 20] | Windgrass plant response rating [10] | Plant response rating, Windgrass ([10]; 16 g ai/ha, scale 0 to 100) | Barley plant response rating [11] | Plant response rating, Barley [11, 17]

From patent publication US20100267561A1, “HERBICIDAL PYRIDAZINONE DERIVATIVES” (priority 2007, published 2010)
